Read-outs that look alike come from different tables or passages of the source.
Legend:
[1] = system: luciferase-expressing P. berghei liver stage parasites in HepG2 cells; experiment: Inhibition of liver-stage development assay (ILSDA), Method 2 (WRAIR, 96-well); assay type: cell-based, Plasmodium berghei; conditions: for AC50: Plasmodium berghei; for Activity direction (Decrease / Inactive): P. berghei liver stage
in vitro = conditions: human
[2] = system: P. berghei-ANKA-GFP-LucCON liver stage parasites in HepG2-A16-CD81EGFP cells; experiment: P. berghei liver stage Pb-Luc assay, Method 1 (UCSD, 1536-well); assay type: cell-based, Plasmodium berghei; conditions: for activity at 1 µM / activity at 3 µM: 48 h, average of 2 wells on a 1536 well plate; for Max Resp (signal direction of the dose response): Decrease = decreasing P. berghei viability with dose, Increase = increasing signal, Inactive = no dose response
[3] = system: Plasmodium falciparum Dd2 asexual blood stage parasites; experiment: microbe, parasite or virus in culture; design: species or system Plasmodium falciparum Dd2 in human erythrocytes; single determination (one 11-point concentration-response curve); conditions: Plasmodium falciparum, DD2, Erythrocyte, 72 h; read-out: AC50
HepG2-A16-CD81EGFP cells = conditions: average of 2 wells
[4] = Method 2, Decrease = decreasing P. berghei viability with dose, Increase = increasing signal, Inactive = no dose response
[5] = HepG2-A16-CD81EGFP cells, uninfected
[6] = Plasmodium berghei, 1 uM (compounds provided at 10 mM), column 11, read-out: Pb-Luc (P. berghei liver stage), % of control, lower concentration, first repeat
[7] = Plasmodium berghei, 1 uM (compounds provided at 10 mM), column 12, read-out: Pb-Luc (P. berghei liver stage), % of control, lower concentration, second repeat
[8] = Plasmodium berghei, 3 uM (compounds provided at 10 mM), column 8, read-out: Pb-Luc (P. berghei liver stage), % of control, higher concentration, first repeat
[9] = Plasmodium berghei, 3 uM (compounds provided at 10 mM), column 9, read-out: Pb-Luc (P. berghei liver stage), % of control, higher concentration, second repeat
[10] = HepG2, Method 2, Hill fit, 50% of maximum activity response, read-out: AC50
[11] = HepG2, Method 2, log10 of molar AC50 from Hill fit, read-out: Log AC50 (converted)
[12] = Plasmodium berghei, Method 1, Hill fit, 50% of maximum activity response, read-out: AC50
[13] = Plasmodium berghei, Method 1, log10 of molar AC50 from Hill fit, read-out: Log AC50 (converted)
[14] = HepG2, P. berghei liver stage, Method 2, dose response, read-out: AC50
[15] = HepG2, P. berghei liver stage, Method 2, dose response, read-out: Log AC50 (converted)

With `Cc1ccc2c(c1)[nH]c1c(N3CCN(Cc4ccccc4)CC3)ncnc12` [MLS000041320-01] the “Max Resp (signal direction of the dose response)” value (from here on “Max Resp”) [1, 4] was “Inactive”, the viability at 48 h, 1 µM (in vitro; [5]) was 82% and the viability at 48 h, 3 µM (in vitro; [5]) was 88%. The activity at 1 µM [2, 6] was 23%, the activity at 1 µM [2, 7] was 17% and the activity at 3 µM [2, 8] was 5.3%. For the same compound, the activity at 3 µM [2, 9] was 4%.

In the case of `N=c1c2c(n(Cc3ccccc3)c3c1CCC3)CCC2` [MLS000080128-01], the AC50 [3] is reported as 4.22 µM, the “Max Resp” value [1, 4] is reported as “Inactive” and the viability at 48 h, 1 µM (in vitro; [5]) is reported as 98%. The viability at 48 h, 3 µM (in vitro; [5]) was 74%.

In the case of `CCOC(=O)c1c[nH]c2c3c(ccc2c1=O)CCCC3` [MLS000085191-01], the “Max Resp” value [1, 4] is reported as “Increase”, the viability at 48 h, 1 µM (in vitro; [5]) is reported as 98% and the viability at 48 h, 3 µM (in vitro; [5]) is reported as 106%.

For `CC(C)(C)C1CCc2[nH]c3ccccc3c(=O)c2C1` (stereo not drawn) [MLS000109039-01], the AC50 [3] was 1.88 µM, the “Max Resp” value [1, 4] was “Decrease” and the AC50 [1, 10] was 0.282 µM. It also gave an AC50 [1, 11] of 0.282 µM, a viability at 48 h, 1 µM (in vitro; [5]) of 89% and a viability at 48 h, 3 µM (in vitro; [5]) of 88%.

With `Cc1cc(Nc2ccc(Br)c(C)c2)n2nc(C)nc2n1` [MLS000116638-01] the “HepG2 1uM growth rep1” value (HepG2-A16-CD81EGFP cells; HepG2, 1 µM compound treatment (10 mM stocks), replicate 1, normalized) was 91%, the “HepG2 1uM growth rep2” value (HepG2-A16-CD81EGFP cells; HepG2, 1 µM compound treatment (10 mM stocks), replicate 2, normalized) was 87% and the “HepG2 3uM growth rep1” value (HepG2-A16-CD81EGFP cells; HepG2, 3 µM compound treatment (10 mM stocks), replicate 1, normalized) was 86%. For the same compound, the “HepG2 3uM growth rep2” value (HepG2-A16-CD81EGFP cells; HepG2, 3 µM compound treatment (10 mM stocks), replicate 2, normalized) was 89%, the AC50 [3] was 1.33 µM and the “Max Resp” value [1, 4] was “Decrease”. It also gave an AC50 [1, 10] of 0.794 µM, an AC50 [1, 11] of 0.794 µM and an activity at 1 µM ([2]; Plasmodium berghei, P. berghei liver stage, 1 µM compound treatment (10 mM stocks), replicate 1, normalized, read-out: PbLuc 1uM growth rep1) of 32%. It also gave an activity at 1 µM ([2]; Plasmodium berghei, P. berghei liver stage, 1 µM compound treatment (10 mM stocks), replicate 2, normalized, read-out: PbLuc 1uM growth rep2) of 25%, an activity at 3 µM ([2]; Plasmodium berghei, P. berghei liver stage, 3 µM compound treatment (10 mM stocks), replicate 1, normalized, read-out: PbLuc 3uM growth rep1) of 9% and an activity at 3 µM ([2]; Plasmodium berghei, P. berghei liver stage, 3 µM compound treatment (10 mM stocks), replicate 2, normalized, read-out: PbLuc 3uM growth rep2) of 12%.

In the case of `O=C(CCc1ccccc1)NC(c1cccs1)c1cc(Cl)c2cccnc2c1O` (stereo not drawn) [MLS000703748-01], the “Max Resp” value [1, 4] is reported as “Inactive”, the viability at 48 h, 1 µM (in vitro; [5]) is reported as 113% and the viability at 48 h, 3 µM (in vitro; [5]) is reported as 51%.

For `N=c1c2ccccc2nnn1-c1ccc(C(F)(F)F)cc1` [MLS000707013-01], the AC50 [3] was 3.76 µM, the “Max Resp” value [1, 4] was “Decrease” and the AC50 [1, 10] was 0.708 µM. For the same compound, the AC50 [1, 11] was 0.708 µM, the viability at 48 h, 1 µM (in vitro; [5]) was 91% and the viability at 48 h, 3 µM (in vitro; [5]) was 101%. It also gave an activity at 1 µM [2, 6] of 23%, an activity at 1 µM [2, 7] of 19% and an activity at 3 µM [2, 8] of 12%. The activity at 3 µM [2, 9] was 10%.

In the case of `COc1ccc(C2=Nn3c([n+](C)c4ccccc43)SC2)cc1` [MLS000717833-01], the “Max Resp” value [1, 4] is reported as “Decrease”, the AC50 [1, 10] is reported as 11.2 µM and the AC50 [1, 11] is reported as 11.2 µM. For the same compound, the viability at 48 h, 1 µM (in vitro; [5]) was 83% and the viability at 48 h, 3 µM (in vitro; [5]) was 63%.

With `CCn1cc(C(=O)O)c(=O)c2cnc(N3CCN(/C(S)=N/c4ccccc4)CC3)nc21` [MLS000777921-01] the AC50 [3] was 3.76 µM, the “Max Resp” value [1, 4] was “Decrease” and the AC50 [1, 10] was 2 µM. It also gave an AC50 [1, 11] of 2 µM, a viability at 48 h, 1 µM (in vitro; [5]) of 113% and a viability at 48 h, 3 µM (in vitro; [5]) of 102%. For the same compound, the activity at 1 µM [2, 6] was 25%, the activity at 1 µM [2, 7] was 24% and the activity at 3 µM [2, 8] was 3.25%. For the same compound, the activity at 3 µM [2, 9] was 2.6%.

With `O=C(Nc1ccc(N2CCN(c3ncccc3C(F)(F)F)CC2)nc1)c1cccs1` [MLS000862045-01] the “Max Resp” value [1, 4] was “Decrease”, the AC50 [1, 10] was 0.447 µM and the AC50 [1, 11] was 0.447 µM. For the same compound, the viability at 48 h, 1 µM (in vitro; [5]) was 105% and the viability at 48 h, 3 µM (in vitro; [5]) was 95%.

In the case of `O=C(NC1CC1)c1ccc(CSCc2ccccc2Cl)o1` [MLS001030935-01], the “Max Resp” value [1, 4] is reported as “Decrease”, the AC50 [1, 10] is reported as 0.2 µM and the AC50 [1, 11] is reported as 0.2 µM. For the same compound, the viability at 48 h, 1 µM (in vitro; [5]) was 111%, the viability at 48 h, 3 µM (in vitro; [5]) was 100% and the activity at 1 µM [2, 6] was 16%. For the same compound, the activity at 1 µM [2, 7] was 12%, the activity at 3 µM [2, 8] was 1% and the activity at 3 µM [2, 9] was 9%.

For `Cc1ccc(CSCc2ccc(C(=O)NC3CC3)o2)cc1` [MLS001031023-01], the AC50 [3] was 2.66 µM, the “Max Resp” value [1, 4] was “Decrease” and the AC50 [1, 10] was 0.224 µM. It also gave an AC50 [1, 11] of 0.224 µM, a viability at 48 h, 1 µM (in vitro; [5]) of 93% and a viability at 48 h, 3 µM (in vitro; [5]) of 88%.

In the case of `Cc1ccc(C(=O)Nc2nc(-c3ccccn3)cs2)cc1S(=O)(=O)N1CCOCC1` [MLS002157637-01], the “Max Resp” value [1, 4] is reported as “Inactive”, the viability at 48 h, 1 µM (in vitro; [5]) is reported as 92% and the viability at 48 h, 3 µM (in vitro; [5]) is reported as 55%.

In the case of `CCCCN(CC)CCNC(=O)c1cc2c(-c3ccc(Cl)cc3)nn(C)c2s1` [NCGC00108995], the “Max Resp” value [1, 4] is reported as “Inactive” and the viability at 66 h (in vitro; [5]) is reported as 102%.

For `O=C1c2ccccc2-n2c1nc1ccccc1c2=O` [NCGC00160337], the “Max Resp” value [1] was “Increase” and the viability (in vitro) was 87%.

With `Cc1ccc(Nc2nc(NCCO)c3ccccc3n2)cc1C` [NCGC00273600-02] the “Max Resp” value [1, 4] was “Decrease”, the AC50 [1, 10] was 0.562 µM and the AC50 [1, 11] was 0.562 µM. For the same compound, the viability at 48 h, 1 µM (in vitro; [5]) was 96% and the viability at 48 h, 3 µM (in vitro; [5]) was 82%.

For `Cc1ccc(C(=O)Nc2nc(-c3ccccn3)cs2)cc1[S+](=O)([O-])N1CCOCC1.O=C(O)C(F)(F)F` [NCGC00345210-01], the “Max Resp” value [1, 4] was “Inactive”, the viability at 48 h, 1 µM (in vitro; [5]) was 73% and the viability at 48 h, 3 µM (in vitro; [5]) was 31%.

With `c1ccc(CNc2nc(NCc3ccccc3)c3ccccc3n2)cc1` [NCGC00347066-01] the “Max Resp” value [1, 4] was “Inactive”, the viability at 48 h, 1 µM (in vitro; [5]) was 83% and the viability at 48 h, 3 µM (in vitro; [5]) was 72%.

With `CCC(CC)c1cc([C@H]2CN3CC[C@H]2C[C@@H]3CNC(C)=O)nc(-c2ccncc2)n1` [NCGC00394634-01] the AC50 [3] was 15.3 µM, the “Max Resp” value [1, 4] was “Decrease” and the AC50 [1, 10] was 0.355 µM. The AC50 [1, 11] was 0.355 µM and the “Max Resp” value ([2]; Method 1) was “Decrease”.

For `CCC(CC)c1cc([C@H]2CN3CC[C@H]2C[C@@H]3CNC(=O)Cc2cccs2)nc(-c2ccncc2)n1` [NCGC00400345-01], the AC50 [3] was 2.99 µM, the “Max Resp” value [1, 4] was “Decrease” and the AC50 [1, 10] was 0.251 µM. The AC50 [1, 11] was 0.251 µM, the “Max Resp” value ([2]; Method 1) was “Decrease” and the AC50 [2, 12] was 5.62 µM. It also gave an AC50 [2, 13] of 5.62 µM.

With `COc1ccc(-c2ccc3ncc(Nc4ccncc4)n3n2)cc1OC` [NCGC00412536-01] the AC50 [3] was 4.85 µM, the “Max Resp” value [1, 4] was “Inactive” and the AC50 [2, 12] was 2.24 µM. For the same compound, the AC50 [2, 13] was 2.24 µM.

For `COc1ccc(-n2nc(C)c([C@@H]3C=C[C@@H](NCc4ccc(F)cc4)C3)c2C)cc1` [NCGC00421412-01], the AC50 [3] was 1.37 µM, the “Activity direction (Decrease / Inactive)” value ([1]; Method 2, dose response) was “Decrease” and the AC50 [1, 14] was 3.98 µM. The AC50 [1, 15] was 3.98 µM, the “Max Resp” value ([2]; Method 1) was “Decrease” and the AC50 ([2]; Method 1, Hill fit, 50% of maximum activity response, read-out: AC50) was 1.78 µM. For the same compound, the “Log AC50 (M)” value ([2]; Method 1, log10 of molar AC50 from Hill fit) was -5.750 M, the AC50 [2, 12] was 1.58 µM and the AC50 [2, 13] was 1.58 µM.

With `O=C(Nc1ccc2c(N3CCCCC3)ncnc2c1)c1cc(F)cc(F)c1` [NCGC00425525-01] the AC50 [3] was 1.88 µM, the “Activity direction (Decrease / Inactive)” value ([1]; Method 2, dose response) was “Decrease” and the AC50 [1, 14] was 0.398 µM. For the same compound, the AC50 [1, 15] was 0.398 µM, the AC50 [2, 12] was 1.41 µM and the AC50 [2, 13] was 1.41 µM.
